Data on two compounds can be found in patent publication US7465720B2, “Proteasome inhibiting β-lactam compounds” (President and Fellows of Harvard College, priority 2005, dated 2008).

Series [1] in a line: Stability of Compound 3 in solution at pH 7. In kind it is physicochemical. The source says: Oxidative cleavage of the (S)(−)-(4-methoxyphenyl)-ethylamide protecting group in Compound 14 cleanly afforded the β-lactam, Compound 3, in 89% yield.
The target in the next series is T1, 20S proteasome (Homo sapiens, UniProt P28074).
T1 construct: purchased Boston Biochem
The series is described as follows: Inactivation of 20S proteasome, hydrolysis of Suc-Leu-Leu-Val-Tyr-AMC followed by fluorescence. Format: biochemical. Conditions: for kinact/KI: read-out: kobs/[3]. Here is the method: Determination of the inhibitory activity of Compound 3 against the 20S proteasome (see reference 12) was carried out by a modification of the method reported by Dick et al. See reference 11. […] See reference 12. The progress of proteasome inactivation was determined by addition of Suc-LLVY-AMC to a 2 mL aliquot of the incubation experiment and monitoring the rate of production of free AMC by fluorescence spectrophotometry.
A plot of .ln(fluorescence/time) vs. time provided a linear decay whose slope is kobs for proteasome inactivation (FIG. 2). The rate of proteasome inactivation was proportional to the amount of Compound 3 present in the incubation experiments. The 10 μM and 30 μM time course experiments gave values for kobs/[3] as 7 M-1s-1 and 6.7 M-1s-1 respectively. In order to monitor background inactivation of 20S proteasome (see reference 13), each of these of experiments was run side by side with a control experiment identical in all respects except for the exclusion of Compound 3.
Inactivation of 20S proteasome by Compound 3. To separate 50 mL vials containing 12 mL of pH 7.9 buffer (20 mM hepes, 0.5 mM EDTA) was added 60 μL of a stock solution of 20S proteasome (20 mM Hepes, 0.5 mM EDTA, pH 7.9, 100 μg/mL) and aqueous sodium dodecylsulfate (10% w/v, 30 μL). The initial rate of hydrolysis of Suc-Leu-Leu-Val-TyrAMC was determined by addition of a solution of Suc-Leu-Leu-Val-Tyr-AMC (10 mM in DMSO, 10 μL) to a 2 mL aliquot of each of the above solutions. The initial rate of free AMC production was monitored at 37° C. by fluorescence spectrophotometry as described by Dick et al.* To one of the stock solutions was added a solution of the β-lactam 3 (10 mM in DMSO, 12 μL). Both solutions were incubated side by side at 37° C. Aliquots were removed at time points as assayed as above. The data for both the 10 μM experiment and an identical experiment utilizing 30 μM using a 30 mM stock solution of 3 are tabulated below. * See, McCormack, T.; Baumeister, W.; Grenier, L.; Moomaw, C.; Plamondon, L.; Pramanik, B.; Slaughter, C.; Soucy, F.; Stein, R.; Zuhl, F.; Dick, L., J. Biol. Chem. 1996, 272, 26103-26109.

A further series relates to PC12 cells. The conditions noted are these: cited from earlier work.
The mark [2] stands for this setting: Part 2, 30 μM of Compound 3, time 0 mm.
[3] abbreviates: Part 2, 30 μM of Compound 3, time 47 mm.
Where [4] appears, read: Part 2, 30 μM of Compound 3, time 101 mm.
Setting [5] is: Part 2, 30 μM of Compound 3, time 177 mm.

SMILES strings stand for the structures. Like-named read-outs stand apart in the source and are kept apart here. Where a SMILES comes first, the peptide text is derived from it. The star is where a group is joined. Cbz = O=C(OCc1ccccc1)*

One may read the melting point as the temperature of the solid-liquid transition. For the compound `CC(C)[C@H](O)[C@@]12NC(=O)[C@H](CCCl)[C@@H]1NC2=O` [Compound 3], the melting point was 205 to 207 °C. Further, the “stability compared with the corresponding β-lactone and Compounds 1 and 2” value in series [1] (found to date) was “much more stable”. In series [1] (pH 7, 23° C., 24 h), the “stability at pH 7” value was “completely stable”. In addition, at 20S proteasome (10 μM 3, after 9.5 h, read-out: initial proteasome activity remaining), the remaining activity at 10 µM was under 10%. Besides, at 20S proteasome (10 μM Compound 3, time 0 h), the “% Initial Velocity” value is on record as 100% and the “Experiment with 10 μM 3 (units F/s)” value is 0.59 units F/s. Besides, on 20S proteasome (10 μM Compound 3, time 1.5 h), the “% Initial Velocity” value is 57% and the “Experiment with 10 μM 3 (units F/s)” value came out at 0.337 units F/s. Moreover, at 20S proteasome (10 μM Compound 3, time 2.5 h), the “% Initial Velocity” value is 45% and the “Experiment with 10 μM 3 (units F/s)” value came to 0.267 units F/s. At 20S proteasome (10 μM Compound 3, time 4.5 h), the “% Initial Velocity” value is given as 26% and the “Experiment with 10 μM 3 (units F/s)” value turned out to be 0.156 units F/s. Further, on 20S proteasome (10 μM Compound 3, time 6.5 h), the “% Initial Velocity” value is recorded as 15% and the “Experiment with 10 μM 3 (units F/s)” value is listed as 0.09 units F/s. On 20S proteasome (10 μM Compound 3, time 9.5 h), the “% Initial Velocity” value amounted to 7.4% and the “Experiment with 10 μM 3 (units F/s)” value worked out at 0.044 units F/s. Besides, the remaining activity at 30 µM at 20S proteasome (30 μM 3, after 3 h, read-out: initial proteasome activity remaining) is under 10%. In addition, at 20S proteasome (setting [2]), the “% Initial Velocity” value is 100% and the “Experiment with 10 μM 3 (units F/s)” value is reported as 0.526 units F/s. In addition, at 20S proteasome (setting [3]), the “% Initial Velocity” value stood at 44% and the “Experiment with 10 μM 3 (units F/s)” value is “.233 units F/s”. Besides, on 20S proteasome (setting [4]), the “% Initial Velocity” value was determined as 17% and the “Experiment with 10 μM 3 (units F/s)” value is listed as 0.090 units F/s. At 20S proteasome (setting [5]), the “% Initial Velocity” value is 7% and the “Experiment with 10 μM 3 (units F/s)” value is given as 0.039 units F/s. Besides, the kinact/KI on 20S proteasome (pH 7.9, 10 μM time course) turned out to be 7 M⁻¹ s⁻¹. At 20S proteasome (pH 7.9, 30 μM time course), the kinact/KI was 6.7 M⁻¹ s⁻¹.

Turning to `CC(C)C[C@@H](C=O)NC(=O)[C@H](CC(C)C)NC(=O)[C@H](CC(C)C)NC(=O)OCc1ccccc1` [benzyloxycarbonyl (Z)-Leu-Leu-leucinal] (Cbz-Leu-Leu-Leu-aldehyde), the “optimal concentration for inducing neurite outgrowth” value in the series with PC12 cells is 30 nM.
